Experimental data reported in PubChem BioAssay (NCI).
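How tested: cells in 96-well plates exposed to compound for 48 hours at five concentrations. The concentration for full growth arrest is given as TGI.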

Tests used:
Experiment in all cases: NCI tumour cell line growth inhibition, 48 h
A498 renal = tested on: A498 renal
ACHN renal = tested on: ACHN renal
DU-145 prostate = tested on: DU-145 prostate
EKVX NSCLC = tested on: EKVX NSCLC
MALME-3M melanoma = tested on: MALME-3M melanoma
MDA-MB-435 = tested on: MDA-MB-435
NCI-H23 lung = tested on: NCI-H23 lung
NCI/ADR-RES ovarian = tested on: NCI/ADR-RES ovarian
SK-MEL-5 melanoma = tested on: SK-MEL-5 melanoma
SN12C renal = tested on: SN12C renal
SW-620 colon = tested on: SW-620 colon
UACC-62 melanoma = tested on: UACC-62 melanoma
RPMI-8226 leukemia = tested on: RPMI-8226 leukemia
SK-MEL-2 melanoma = tested on: SK-MEL-2 melanoma
SNB-75 CNS = tested on: SNB-75 CNS

| SMILES | TGI (A498 renal) | TGI (ACHN renal) | TGI (DU-145 prostate) | TGI (EKVX NSCLC) | TGI (MALME-3M melanoma) | TGI (MDA-MB-435) | TGI (NCI-H23 lung) | TGI (NCI/ADR-RES ovarian) | TGI (SK-MEL-5 melanoma) | TGI (SN12C renal) | TGI (SW-620 colon) | TGI (UACC-62 melanoma) | TGI (RPMI-8226 leukemia) | TGI (SK-MEL-2 melanoma) | TGI (SNB-75 CNS) |
| --- | --- | --- | --- | --- | --- | --- | --- | --- | --- | --- | --- | --- | --- | --- | --- |
| CC1=CC[C@@]2(CO)[C@@H]([C@@H]1C)[C@H]1CC[C@@H]3[C@@]4(C)CC[C@H](O)C(C)(C)[C@@H]4CC[C@@]3(C)[C@]1(C)C[C@@H]2O | 58.8 µM | 91.7 µM | > 100 µM | > 100 µM | 72.8 µM | > 100 µM | 46.4 µM | > 100 µM | 42.1 µM | > 100 µM | > 100 µM | > 100 µM | – | – | – |
| CCOC(=O)[C@@]12C[C@](/C=C/OC)(O[Si](C)(C)C)[C@@]13c1cc(OC)c(OC)cc1CCN3C(=O)C2O (some centres undefined) | > 100 µM | > 100 µM | > 100 µM | > 100 µM | > 100 µM | > 100 µM | > 100 µM | > 100 µM | > 100 µM | > 100 µM | > 100 µM | > 100 µM | > 100 µM | > 100 µM | > 100 µM |
| Clc1cc(Cl)cc(C2ON=C(c3ccccc3)N2C23CC4CC(CC(C4)C2)C3)c1 (centres undefined) | > 10 µM | > 10 µM | > 10 µM | > 10 µM | > 10 µM | > 10 µM | > 10 µM | > 10 µM | > 10 µM | > 10 µM | > 10 µM | > 10 µM | > 10 µM | > 10 µM | > 10 µM |
| COc1cc(C2C(C#N)=C(N)OC3=C2CCS(=O)(=O)c2ccc(C)cc23)cc(OC)c1OC (centres undefined) | > 100 µM | > 100 µM | > 100 µM | – | > 100 µM | > 100 µM | > 100 µM | > 100 µM | > 100 µM | > 100 µM | > 100 µM | > 100 µM | > 100 µM | > 100 µM | > 100 µM |
| CCOC(=O)C(C)NC(=O)C(C)NC(=O)C(C)NC(=O)C(C)NC(=O)C(C)NC(=O)OCc1ccccc1 (centres undefined) | – | > 100 µM | > 100 µM | > 100 µM | > 100 µM | > 100 µM | > 100 µM | > 100 µM | > 100 µM | > 100 µM | > 100 µM | > 100 µM | > 100 µM | > 100 µM | > 100 µM |
| CCOC(=O)c1cnc2n(c1=N)[C@H]1CCCC[C@@H]1N2 | > 100 µM | > 100 µM | > 100 µM | > 100 µM | > 100 µM | > 100 µM | > 100 µM | > 100 µM | > 100 µM | > 100 µM | > 100 µM | > 100 µM | > 100 µM | > 100 µM | > 100 µM |
| COC(=O)/C=C1/CCC(C)(C(=O)NS(=O)(=O)c2ccc(C)cc2)C1(C)C (centres undefined) | > 100 µM | > 100 µM | > 100 µM | > 100 µM | > 100 µM | > 100 µM | > 100 µM | > 100 µM | > 100 µM | > 100 µM | > 100 µM | > 100 µM | > 100 µM | > 100 µM | – |
| CCOc1ccc(N/C(Cl)=C(Cl)\C(=C(\Nc2ccc(OCC)cc2)n2nnc3ccccc32)[N+](=O)[O-])cc1 | 39 µM | 15.1 µM | 46.8 µM | 31.3 µM | 5.49 µM | 23.7 µM | 22.3 µM | > 100 µM | 24.5 µM | 23.3 µM | 5.71 µM | 34.6 µM | > 30.5 µM | 35.5 µM | 42.5 µM |
